Values of other authors, collected in publication PMC2602858 (Cancer epidemiology, biomarkers & prevention : a …, 2008).

Experiments:
CYP1A2 = conditions: I3C 400 mg twice daily, four weeks
[1] = tested on: urinary 2-hydroxyestrone: 16α-hydroxyestrone ratio; conditions: four weeks
women = conditions: I3C 200 and 400 mg twice daily for 4 weeks
[2] = humans, plasma

In the case of OCc1c[nH]c2ccccc12 [I3C, indole-3-carbinol], the “effect on CYP1A2” value (CYP1A2) is listed as “marked induction”, the “change of estrone hydroxylation ratio” value ([1]; I3C 200 mg twice daily) is listed as “change in the estrone hydroxylation ratio was obtained” and the “change of urinary 2-hydroxyestrone: 16α-hydroxyestrone ratio” value ([1]; I3C 400 mg twice daily) is listed as “doubling”. The adverse effects (women) was “no adverse effects were reported or observed” and the “circulating products detected after oral I3C” value [2] was “the only detectable circulating product was DIM”.
